From ChEMBL document CHEMBL1139578, “(1H-imidazo[4,5-c]pyridin-2-yl)-1,2,5-oxadiazol-3-ylamine derivatives: further optimisation as highly potent and selective MSK-1-inhibitors” (Bioorg Med Chem Lett, 2005)

What was measured:
[1] = molecular target: T1, Ribosomal protein S6 kinase alpha-5 (Homo sapiens, UniProt O75582); test: Inhibitory concentration against MSK-1
Target sequence in this assay (O75582 whole entry): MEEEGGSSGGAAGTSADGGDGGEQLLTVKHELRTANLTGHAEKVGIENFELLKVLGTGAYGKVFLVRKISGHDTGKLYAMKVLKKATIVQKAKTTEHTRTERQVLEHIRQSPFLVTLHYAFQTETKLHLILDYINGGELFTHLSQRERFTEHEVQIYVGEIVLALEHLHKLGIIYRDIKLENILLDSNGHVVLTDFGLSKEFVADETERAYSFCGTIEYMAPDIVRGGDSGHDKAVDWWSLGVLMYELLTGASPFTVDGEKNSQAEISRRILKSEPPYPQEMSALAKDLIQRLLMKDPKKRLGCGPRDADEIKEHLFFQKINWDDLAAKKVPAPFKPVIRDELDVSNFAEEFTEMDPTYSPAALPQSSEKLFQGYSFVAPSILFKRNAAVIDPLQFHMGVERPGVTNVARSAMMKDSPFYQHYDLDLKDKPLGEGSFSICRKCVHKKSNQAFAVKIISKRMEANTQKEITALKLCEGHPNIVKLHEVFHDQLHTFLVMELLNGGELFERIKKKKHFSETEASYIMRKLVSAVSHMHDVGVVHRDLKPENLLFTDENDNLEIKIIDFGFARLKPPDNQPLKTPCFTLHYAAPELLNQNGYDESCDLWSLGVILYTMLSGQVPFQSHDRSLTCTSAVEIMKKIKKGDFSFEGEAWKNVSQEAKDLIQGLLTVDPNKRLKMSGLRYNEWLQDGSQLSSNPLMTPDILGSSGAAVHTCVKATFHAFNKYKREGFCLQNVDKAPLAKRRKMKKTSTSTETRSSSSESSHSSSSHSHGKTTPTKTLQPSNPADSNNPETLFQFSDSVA

[2] = molecular target: T2, Cyclin-dependent kinase 2 (Homo sapiens, UniProt P24941); test: Inhibitory concentration against selected kinase CDK2
[3] = molecular target: T3, Rho-associated protein kinase 1 (Homo sapiens, UniProt Q13464); test: Inhibitory concentration against selected kinase ROCK1
Target sequence in this assay (Q13464 whole entry): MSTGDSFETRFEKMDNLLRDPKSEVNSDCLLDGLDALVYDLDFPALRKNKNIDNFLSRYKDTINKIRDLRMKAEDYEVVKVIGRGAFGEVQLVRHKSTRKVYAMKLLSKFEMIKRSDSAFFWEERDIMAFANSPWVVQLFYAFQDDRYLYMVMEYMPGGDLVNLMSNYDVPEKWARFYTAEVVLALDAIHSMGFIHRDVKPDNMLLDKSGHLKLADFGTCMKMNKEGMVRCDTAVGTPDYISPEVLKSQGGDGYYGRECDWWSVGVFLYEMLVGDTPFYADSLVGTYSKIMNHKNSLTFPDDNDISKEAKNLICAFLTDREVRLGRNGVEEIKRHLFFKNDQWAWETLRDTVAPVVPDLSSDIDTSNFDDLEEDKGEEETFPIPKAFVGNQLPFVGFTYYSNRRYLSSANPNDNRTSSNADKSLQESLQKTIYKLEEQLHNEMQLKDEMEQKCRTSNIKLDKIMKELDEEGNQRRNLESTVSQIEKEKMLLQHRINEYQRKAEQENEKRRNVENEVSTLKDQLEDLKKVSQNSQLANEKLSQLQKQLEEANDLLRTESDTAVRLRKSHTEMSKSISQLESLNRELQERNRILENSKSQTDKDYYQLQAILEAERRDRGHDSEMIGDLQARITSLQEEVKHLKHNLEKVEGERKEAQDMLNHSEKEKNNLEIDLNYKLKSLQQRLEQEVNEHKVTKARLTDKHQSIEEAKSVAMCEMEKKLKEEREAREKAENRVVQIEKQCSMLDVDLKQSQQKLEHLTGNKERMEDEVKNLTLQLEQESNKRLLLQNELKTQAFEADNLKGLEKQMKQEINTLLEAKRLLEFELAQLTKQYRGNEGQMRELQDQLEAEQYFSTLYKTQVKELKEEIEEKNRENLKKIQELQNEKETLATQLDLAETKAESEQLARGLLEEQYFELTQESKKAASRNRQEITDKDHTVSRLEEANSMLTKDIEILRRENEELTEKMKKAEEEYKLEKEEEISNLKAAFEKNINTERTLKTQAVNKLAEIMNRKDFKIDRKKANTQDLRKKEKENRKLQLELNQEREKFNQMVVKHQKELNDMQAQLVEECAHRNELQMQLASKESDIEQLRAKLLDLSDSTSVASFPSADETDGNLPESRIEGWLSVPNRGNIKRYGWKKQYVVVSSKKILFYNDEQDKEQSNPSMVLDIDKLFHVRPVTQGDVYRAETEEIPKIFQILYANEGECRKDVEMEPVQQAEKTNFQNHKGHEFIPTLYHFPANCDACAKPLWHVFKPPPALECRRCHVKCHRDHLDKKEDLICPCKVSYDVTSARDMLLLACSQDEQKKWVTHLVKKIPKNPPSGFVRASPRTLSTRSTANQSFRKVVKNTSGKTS

[4] = molecular target: T4, Dual specificity tyrosine-phosphorylation-regulated kinase 1A (Homo sapiens, UniProt Q13627); test: Inhibitory concentration against selected kinase DYRK1-alpha
[5] = molecular target: T5, Ribosomal protein S6 kinase beta-1 (Homo sapiens, UniProt P23443); test: Inhibitory concentration against selected kinase p70S6K
Target sequence in this assay (P23443 whole entry): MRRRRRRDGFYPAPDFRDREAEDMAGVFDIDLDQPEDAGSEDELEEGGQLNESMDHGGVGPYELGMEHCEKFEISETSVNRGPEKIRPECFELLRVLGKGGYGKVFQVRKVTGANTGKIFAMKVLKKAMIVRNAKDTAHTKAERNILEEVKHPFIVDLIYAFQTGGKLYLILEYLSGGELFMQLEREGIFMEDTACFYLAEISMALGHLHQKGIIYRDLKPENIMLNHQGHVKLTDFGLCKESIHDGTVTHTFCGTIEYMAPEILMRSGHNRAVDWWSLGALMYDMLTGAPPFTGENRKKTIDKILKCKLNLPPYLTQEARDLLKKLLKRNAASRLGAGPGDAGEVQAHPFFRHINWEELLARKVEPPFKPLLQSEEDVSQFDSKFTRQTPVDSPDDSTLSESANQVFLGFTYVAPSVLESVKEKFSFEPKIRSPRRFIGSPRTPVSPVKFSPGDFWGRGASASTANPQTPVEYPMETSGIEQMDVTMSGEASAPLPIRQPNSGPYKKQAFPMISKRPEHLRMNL

[6] = molecular target: T3, Rho-associated protein kinase 1; details: 10 uM
Target sequence in this assay (Q13464 2-1354 limits assumed): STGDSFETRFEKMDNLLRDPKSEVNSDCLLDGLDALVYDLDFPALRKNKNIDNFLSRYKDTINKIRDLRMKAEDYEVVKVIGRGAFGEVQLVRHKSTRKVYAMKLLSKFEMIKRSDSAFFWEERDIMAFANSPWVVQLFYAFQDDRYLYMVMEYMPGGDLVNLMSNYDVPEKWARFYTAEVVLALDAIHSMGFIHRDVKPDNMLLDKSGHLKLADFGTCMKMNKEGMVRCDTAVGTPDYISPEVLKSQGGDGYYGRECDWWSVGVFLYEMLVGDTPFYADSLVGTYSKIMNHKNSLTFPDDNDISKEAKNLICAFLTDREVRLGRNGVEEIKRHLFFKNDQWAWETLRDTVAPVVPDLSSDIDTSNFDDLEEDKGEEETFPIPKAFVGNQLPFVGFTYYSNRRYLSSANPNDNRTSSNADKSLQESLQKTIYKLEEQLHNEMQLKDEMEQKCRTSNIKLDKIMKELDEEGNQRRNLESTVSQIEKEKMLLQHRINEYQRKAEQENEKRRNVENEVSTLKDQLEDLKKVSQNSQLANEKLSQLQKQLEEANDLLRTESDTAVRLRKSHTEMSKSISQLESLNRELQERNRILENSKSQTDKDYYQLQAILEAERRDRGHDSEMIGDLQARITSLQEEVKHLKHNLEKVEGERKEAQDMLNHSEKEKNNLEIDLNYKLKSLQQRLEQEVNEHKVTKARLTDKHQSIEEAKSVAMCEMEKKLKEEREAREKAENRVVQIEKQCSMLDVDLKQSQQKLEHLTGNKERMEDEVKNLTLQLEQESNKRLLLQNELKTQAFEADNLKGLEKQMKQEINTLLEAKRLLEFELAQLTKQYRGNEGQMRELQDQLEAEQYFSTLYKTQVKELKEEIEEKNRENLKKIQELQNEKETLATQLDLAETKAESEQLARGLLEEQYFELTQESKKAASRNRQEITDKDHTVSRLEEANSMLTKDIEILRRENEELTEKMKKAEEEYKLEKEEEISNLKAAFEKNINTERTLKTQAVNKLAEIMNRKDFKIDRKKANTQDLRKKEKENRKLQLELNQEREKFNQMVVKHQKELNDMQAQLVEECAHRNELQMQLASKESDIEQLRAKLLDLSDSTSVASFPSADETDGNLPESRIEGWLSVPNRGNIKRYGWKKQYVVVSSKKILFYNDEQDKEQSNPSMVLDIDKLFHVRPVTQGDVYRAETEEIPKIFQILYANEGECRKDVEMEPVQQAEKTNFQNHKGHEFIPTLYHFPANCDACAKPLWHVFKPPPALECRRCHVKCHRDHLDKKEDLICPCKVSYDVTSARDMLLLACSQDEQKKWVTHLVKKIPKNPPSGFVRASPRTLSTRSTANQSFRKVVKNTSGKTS
Description: Percent inhibition against ROCK1 at 10 uM using 100 uM ATP

[7] = molecular target: T5, Ribosomal protein S6 kinase beta-1; details: 10 uM
Target sequence in this assay (P23443 whole entry, looked up): as the sequence (P23443 whole entry) above
Description: Percent inhibition against p70S6K at 10 uM using 100 uM ATP

[8] = molecular target: Serine/threonine-protein kinase Sgk1 (Homo sapiens) (UniProt O00141); test: Percent inhibition against SGK at 10 uM using 100 uM ATP
[9] = molecular target: T2, Cyclin-dependent kinase 2; test: Percent inhibition against CDK2 at 10 uM using 100 uM ATP
[10] = molecular target: Serine/threonine-protein kinase Chk1 (Homo sapiens) (UniProt O14757); test: Percent inhibition against Chk1 at 10 uM using 100 uM ATP
[11] = molecular target: Mitogen-activated protein kinase 8 (Homo sapiens) (UniProt P45983); test: Percent inhibition against JNK1 at 10 uM using 100 uM ATP
[12] = molecular target: Casein kinase II (Homo sapiens) (UniProt P67870+P68400+P19784); test: Percent inhibition against CK2 at 10 uM using 100 uM ATP; type: protein-complex assay
[13] = molecular target: Mitogen-activated protein kinase 11 (Homo sapiens) (UniProt Q15759); test: Percent inhibition against p38b at 10 uM using 100 uM ATP
[14] = molecular target: 3-phosphoinositide-dependent protein kinase 1 (Homo sapiens) (UniProt O15530); test: Percent inhibition against PDK1 at 10 uM using 100 uM ATP
[15] = molecular target: 5'-AMP-activated protein kinase catalytic subunit alpha-1 (Homo sapiens) (UniProt Q13131); test: Percent inhibition against AMPK at 10 uM using 100 uM ATP
[16] = molecular target: Mitogen-activated protein kinase 14 (Homo sapiens) (UniProt Q16539); test: Percent inhibition against p38-alpha at 10 uM using 100 uM ATP
[17] = molecular target: Ribosomal protein S6 kinase alpha-1 (Homo sapiens) (UniProt Q15418); test: Percent inhibition against MAPKAP-K1a at 10 uM using 100 uM ATP
[18] = molecular target: Glycogen synthase kinase-3 beta (Homo sapiens) (UniProt P49841); test: Percent inhibition against GSK3-beta at 10 uM using 100 uM ATP
[19] = molecular target: MAP kinase-activated protein kinase 2 (Homo sapiens) (UniProt P49137); test: Percent inhibition against MAPKAP-K2 at 10 uM using 100 uM ATP
[20] = molecular target: Mitogen-activated protein kinase 1 (Homo sapiens) (UniProt P28482); test: Percent inhibition against MAPK2 at 10 uM using 100 uM ATP
[21] = molecular target: Mitogen-activated protein kinase 13 (Homo sapiens) (UniProt O15264); test: Percent inhibition against p38d at 10 uM using 100 uM ATP
[22] = molecular target: Dual specificity mitogen-activated protein kinase kinase 1 (Homo sapiens) (UniProt Q02750); test: Percent inhibition against MKK1 at 10 uM using 100 uM ATP
[23] = molecular target: Protein kinase C alpha type (Homo sapiens) (UniProt P17252); test: Percent inhibition against PKCalpha at 10 uM using 100 uM ATP
[24] = molecular target: cAMP-dependent protein kinase (PKA) (Homo sapiens) (UniProt P22694+P17612+P22612); test: Percent inhibition against PKA at 10 uM using 100 uM ATP; type: protein assay
[25] = molecular target: T1, Ribosomal protein S6 kinase alpha-5; test: Percent inhibition against MSK1 at 10 uM using 100 uM ATP
Target sequence in this assay (O75582 whole entry, looked up): as the sequence (O75582 whole entry) above

[26] = molecular target: T4, Dual specificity tyrosine-phosphorylation-regulated kinase 1A; test: Percent inhibition against DYRK1a at 10 uM using 100 uM ATP

Sequence of Mitogen-activated protein kinase 11 (Homo sapiens) (Q15759 whole entry): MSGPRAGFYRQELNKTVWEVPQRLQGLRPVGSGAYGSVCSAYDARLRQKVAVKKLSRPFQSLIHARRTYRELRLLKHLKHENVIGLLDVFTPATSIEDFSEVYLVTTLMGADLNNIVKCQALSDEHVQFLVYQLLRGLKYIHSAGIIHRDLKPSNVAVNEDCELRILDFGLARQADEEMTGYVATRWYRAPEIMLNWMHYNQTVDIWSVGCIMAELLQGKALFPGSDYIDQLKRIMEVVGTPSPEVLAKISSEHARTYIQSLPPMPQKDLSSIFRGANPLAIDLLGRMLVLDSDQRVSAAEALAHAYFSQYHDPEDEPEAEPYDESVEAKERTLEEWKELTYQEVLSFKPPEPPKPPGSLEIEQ
Sequence of Mitogen-activated protein kinase 1 (Homo sapiens) (P28482 whole entry): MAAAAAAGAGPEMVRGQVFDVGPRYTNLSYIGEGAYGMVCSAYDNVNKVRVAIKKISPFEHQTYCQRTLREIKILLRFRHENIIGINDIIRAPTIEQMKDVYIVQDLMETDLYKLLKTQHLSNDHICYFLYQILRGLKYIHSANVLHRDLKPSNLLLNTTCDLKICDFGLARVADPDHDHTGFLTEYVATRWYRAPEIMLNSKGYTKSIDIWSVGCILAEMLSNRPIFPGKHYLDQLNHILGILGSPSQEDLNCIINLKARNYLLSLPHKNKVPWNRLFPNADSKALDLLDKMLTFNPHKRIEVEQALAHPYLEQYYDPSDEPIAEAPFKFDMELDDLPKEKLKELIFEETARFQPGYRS

CCn1c(-c2nonc2N)nc2cncc(CN3CCCCC3)c21
IC50 [1]: 7 nM

Nc1nonc1-c1nc2cnccc2n1-c1ccccc1
IC50 [1]: 6 nM

CCc1nccc2c1nc(-c1nonc1N)n2CC
IC50 [1]: 229 nM

Nc1nonc1-c1nc2cnccc2n1C1CCCNC1 (racemic)
IC50 [1]: 2 nM

CCn1c(-c2nonc2N)nc2c(OC)nccc21
IC50 [1]: 209 nM

CCn1c(-c2nonc2N)nc2c(-c3ccccc3)nccc21
IC50 [1]: 813 nM

NCc1cccc(-n2c(-c3nonc3N)nc3cnccc32)c1
IC50 [1]: 2.5 nM

Nc1nonc1-c1nc2cnccc2n1C1CC1
IC50 [1]: 1.5 nM

Nc1nonc1-c1nc2cnccc2n1C1CCNCC1
IC50 [1]: 17 nM

CCn1c(-c2nonc2N)nc2cncc(CN3CCC(N)CC3)c21
IC50 [1]: 3 nM

CCn1c(-c2nonc2N)nc2c(N3CCCC3)nccc21
IC50 [1]: 2240 nM

CCn1c(-c2nonc2N)nc2c(Oc3ccccc3)nccc21
IC50 [1]: 10000 nM

CCn1c(-c2nonc2N)nc2cncc(CNC3CCNCC3)c21
IC50 [1]: 0.5 nM
IC50 [2]: > 10000 nM
IC50 [3]: 100 nM
IC50 [4]: 4900 nM
IC50 [5]: 270 nM

CCn1c(-c2nonc2N)nc2cnccc21
inhibition [6]: 90%
inhibition [7]: 95%
inhibition [8]: 67%
inhibition [9]: 84%
inhibition [10]: -6%
IC50 [1]: 3 nM
IC50 [2]: 169 nM
inhibition [11]: 13%
inhibition [12]: 15%
inhibition [13]: 18%
inhibition [14]: 32%
inhibition [15]: 59%
inhibition [16]: -7%
inhibition [17]: 97%
inhibition [18]: 90%
inhibition [19]: 12%
inhibition [20]: 41%
inhibition [21]: 6%
inhibition [22]: 17%
inhibition [23]: 56%
IC50 [3]: 13 nM
inhibition [24]: 75%
IC50 [4]: 110 nM
inhibition [25]: 96%
inhibition [26]: 94%
IC50 [5]: 70 nM

NCc1ccc(-n2c(-c3nonc3N)nc3cnccc32)cc1
IC50 [1]: 4 nM

CCn1c(-c2nonc2N)nc2c(Cl)nccc21
IC50 [1]: 4 nM

NCCCCn1c(-c2nonc2N)nc2cnccc21
IC50 [1]: 13 nM

CCn1c(-c2nonc2N)nc2cncc(CN3CCNCC3)c21
IC50 [1]: 1.4 nM

Nc1nonc1-c1nc2cnccc2n1C1CCCCC1
IC50 [1]: 3 nM

CN(C)CCCn1c(-c2nonc2N)nc2cnccc21
IC50 [1]: 617 nM

CCOc1nccc2c1nc(-c1nonc1N)n2CC
IC50 [1]: 174 nM

CCn1c(-c2nonc2N)nc2c(C)nccc21
IC50 [1]: 8 nM

NCCCn1c(-c2nonc2N)nc2cnccc21
IC50 [1]: 22 nM
